These compounds were tested against T1, human TRPA1 (Homo sapiens, UniProt O75762) (assay: Cell-based functional intracellular calcium ([Ca2+]i) assay, Fluo-4/Fluo-8, FlexStation, challenge with reference TRPA1 agonist (FFA, AITC or 4-HNE)). Conditions: not given.
T1 construct: expressed in transfected cells
T1 sequence (O75762 whole entry): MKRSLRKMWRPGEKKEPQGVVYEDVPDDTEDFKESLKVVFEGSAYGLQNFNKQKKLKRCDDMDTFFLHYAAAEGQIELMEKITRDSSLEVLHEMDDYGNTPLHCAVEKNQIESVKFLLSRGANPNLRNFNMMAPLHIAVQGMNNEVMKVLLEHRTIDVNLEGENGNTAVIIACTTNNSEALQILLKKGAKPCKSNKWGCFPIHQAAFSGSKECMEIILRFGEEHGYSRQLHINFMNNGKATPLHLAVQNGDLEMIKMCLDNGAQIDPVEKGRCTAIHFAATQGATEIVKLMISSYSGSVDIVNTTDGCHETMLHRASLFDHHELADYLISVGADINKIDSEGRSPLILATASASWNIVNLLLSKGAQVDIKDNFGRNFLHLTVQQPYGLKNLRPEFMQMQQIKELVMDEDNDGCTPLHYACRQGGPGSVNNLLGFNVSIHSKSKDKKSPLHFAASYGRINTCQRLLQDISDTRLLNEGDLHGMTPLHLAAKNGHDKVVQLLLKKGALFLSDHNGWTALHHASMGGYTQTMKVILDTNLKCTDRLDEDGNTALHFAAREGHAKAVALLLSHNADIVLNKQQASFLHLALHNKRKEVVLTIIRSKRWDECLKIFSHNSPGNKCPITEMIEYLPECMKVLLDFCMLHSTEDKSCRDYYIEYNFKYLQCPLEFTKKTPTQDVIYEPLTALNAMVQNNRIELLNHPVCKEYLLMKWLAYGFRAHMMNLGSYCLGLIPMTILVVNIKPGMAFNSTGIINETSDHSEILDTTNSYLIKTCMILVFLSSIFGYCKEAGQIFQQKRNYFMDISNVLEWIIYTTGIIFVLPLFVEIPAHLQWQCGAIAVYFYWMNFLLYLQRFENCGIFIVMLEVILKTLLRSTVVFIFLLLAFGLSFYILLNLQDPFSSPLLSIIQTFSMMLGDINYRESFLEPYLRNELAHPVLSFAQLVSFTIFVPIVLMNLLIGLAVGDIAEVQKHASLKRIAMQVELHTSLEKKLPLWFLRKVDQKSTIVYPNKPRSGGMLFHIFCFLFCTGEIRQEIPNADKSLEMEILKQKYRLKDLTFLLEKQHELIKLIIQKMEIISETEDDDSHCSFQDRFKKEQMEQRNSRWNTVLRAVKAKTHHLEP
Method: A stable HEK293 cell line that expresses human TRPA1 in an inducible manner was employed in this assay. […] The expression of TRPA1 was induced by including 1 μg/ml doxycycline in the culture medium. For the induced cells, ruthenium red (5 μM) was also added to minimize the constitutive TRPA1 channel activity and cells were used 14-18 hrs after induction. To measure [Ca^2+]i changes, cells were seeded in wells of 96-well plates at ˜100,000 cells/well and grown for 14-18 hrs to reach confluency. To prevent cell loss from subsequent washing, the wells were treated with 20 μg/ml polyornithine (MW>30,000, Sigma, St Louis, Mo.) for >15 min and rinsed once with Hank's balanced salt solution without Mg^2+ and Ca^2+. […] In some experiments, Fluo-8-AM was used instead of Fluo-4-AM as the calcium-sensitive fluorescent probe. Probenecid (2 mM) was included in all solutions to prevent the leakage of Fluo-4 or Fluo-8 from the cells. At the end of the incubation, cells were washed three times with ECS and placed in 80 μL of the same solution. Fluorescence changes were measured using a fluid handling integrated fluorescence plate reader, FlexStation (Molecular Devices, Sunnyvale, Calif.). Stock solutions of test compounds were initially solubilized in 100% DMSO and then serially diluted to achieve the desired final concentration. […] Drugs were diluted into ECS at 2× or 3× the desired final concentrations and delivered to the sample plate by an integrated robotic 8-channel pipettor at preprogrammed time points. […] Experiments were performed at 20-25° C. For certain experiments, 0.1% BSA was included with the cells and test compounds.
The kinetic data obtained at each test concentration of drug represents a series of fluorescent intensities as a function of time.
Using a sequential addition protocol, test compounds were initially applied to the cells loaded with Fluo-4 or Fluo-8 and fluorescence changes in each well monitored for 2.5 min. The plate was read again in a kinetic mode after a 15-30 min incubation with the test compounds after obtaining baseline values (about 30 s) and subsequent addition of challenge with a reference TRPA1 agonist. Reference TRPA1 agonists in testing each compound included at least one of flufenamic acid (FFA), allyl isothiocyanate (AITC) and 4-hydroxynonenal (4-HNE).
Antagonist activity can be expressed in terms of IC50 with respect to TRPA1 and agonist activity can be expressed in terms of EC50 with respect to TRPA1.
`O=C(c1cc(-c2ccncc2)n(-c2ccc(C(F)(F)F)nc2)n1)N1CCC2(CC1)OCCO2` [Compound 166] showed an IC50 of over 25 µM.
`O=C(c1cc(-c2ccncc2)n(-c2ccc3c(c2)OCO3)n1)N1CCC2(CC1)OCCO2` [Compound 157] was tested, and the IC50 was over 25 µM.
For `CCCC1COC2(CCN(C(=O)c3cc(-c4ccncc4)n(-c4cnccn4)n3)CC2)O1` (stereo not drawn) [Compound 138], the IC50 was over 25 µM.
Compound `CC1COC2(CCN(C(=O)c3cc(-c4ccncc4)n(-c4cnccn4)n3)CC2)O1` (stereo not drawn) [Compound 135] has an IC50 of over 25 µM.
For `O=C(c1cc(-c2cccnc2)n(-c2ccc(F)c(C(F)(F)F)c2)n1)N1C2CCC1CC1(C2)C(=O)NCN1c1ccc(F)cc1` (stereo not drawn) [Compound 333], the IC50 was 0.001 to 5 µM.

Same assay, conditions: HEK293 cells expressing human TRPA1; IC50 class after addition of reference TRPA1 agonist (FFA, AITC or 4-HNE); read-out: human TRPA1-HEK Activity
In the case of `O=C(Nc1ccc2c(c1)OC(F)(F)O2)c1cc(-c2ccncc2)n(-c2ccc(F)c(F)c2)n1` [Compound 88], the IC50 is reported as 5 to 25 µM.
For `O=C(c1cc(-c2ccncc2)n(-c2ccc(C(F)(F)F)c(F)c2)n1)N1CCC2(CC1)C(=O)NCN2c1ccc(F)cc1` [Compound 99], the IC50 was 0.001 to 5 µM.
Work on `O=C(c1cc(-c2cccnc2)n(-c2ccc(F)c(C(F)(F)F)c2)n1)N1CCC2(CC1)C(=O)NCN2c1cc(Cl)c(F)c(Cl)c1` [Compound 332] yielded an IC50 of 0.001 to 5 µM.
For `O=C1OC2(CCN(C(=O)c3cc(-c4ccncc4)n(-c4ccc(C(F)(F)F)cc4)n3)CC2)c2ccccc21` [Compound 58], the IC50 was over 25 µM.
Work on `O=C(c1cc(-c2ccncc2)n(-c2cccc(C(F)(F)F)c2)n1)N1CCC(n2c(=O)[nH]c3ccccc32)CC1` [Compound 147] yielded an IC50 of over 25 µM.
Work on `O=C(c1nn(-c2ccc(F)c(C(F)(F)F)c2)c2c1CCc1ncccc1-2)N1CCC2(CC1)C(=O)NCN2c1ccc(F)cc1` [Compound 313] yielded an IC50 of 0.001 to 5 µM.
In the case of `O=C1CSC2(CCN(C(=O)c3cc(-c4ccncc4)n(-c4ccc(C(F)(F)F)c(F)c4)n3)CC2)N1` [Compound 111], the IC50 is reported as over 25 µM.
Compound `O=C(c1cc(-c2ccncc2)n(-c2ccc(C(F)(F)F)cc2)n1)N1CCC(c2nc3ccccc3o2)CC1` [Compound 65] has an IC50 of over 25 µM.
`O=C(c1cc(-c2ccncc2)n(-c2ccc(C(F)(F)F)cc2)n1)N1CCC(n2c(=O)[nH]c3ccccc32)CC1` [Compound 144] was tested, and the IC50 was 5 to 25 µM.
`CC1CC(n2c(=O)[nH]c3ccc(F)c(F)c32)CC(C)N1C(=O)c1cc(-c2cccnc2)n(-c2cc(F)c(F)c(F)c2)n1` (stereo not drawn) [Compound 203] showed an IC50 of over 25 µM.
Compound `O=C(c1cc(-c2cccnc2)n(-c2ccc(C(F)(F)F)cc2C(F)(F)F)n1)N1CCC2(CC1)C(=O)NCN2c1ccc(F)cc1` [Compound 322] has an IC50 of 0.001 to 5 µM.
`O=C(c1cc(-c2ccccn2)n(-c2cc(F)c(F)c(F)c2)n1)N1CCC(n2c(=O)[nH]c3ccc(F)c(F)c32)CC1` [Compound 252] was tested, and the IC50 was 5 to 25 µM.
For `O=C(c1cc(-c2cccnc2)n(-c2c(Cl)cc(C(F)(F)F)cc2Cl)n1)N1CCC2(CC1)C(=O)NCN2c1ccc(F)c(F)c1` [Compound 219], the IC50 was 0.001 to 5 µM.
`O=C1CSC2(CCN(C(=O)c3cc(-c4ccncc4)n(-c4ccc(F)c(F)c4)n3)CC2)N1` [Compound 90] was tested, and the IC50 was over 25 µM.
In the case of `N#Cc1cc(C(F)(F)F)ccc1-n1nc(C(=O)N2CCC(n3c(=O)[nH]c4ccc(F)c(F)c43)CC2)cc1-c1cccnc1` [Compound 245], the IC50 is reported as over 25 µM.
`O=C(c1cc(-c2ccncc2)n(-c2cc(F)c(F)c(F)c2)n1)N1CCC(n2c(=O)[nH]c3ccccc32)CC1` [Compound 141] gave an IC50 of 5 to 25 µM.
`O=C(c1cc(-c2cccnc2)n(-c2ccc(OC(F)(F)F)c(F)c2)n1)N1CCC2(CC1)C(=O)NCN2c1ccc(F)c(F)c1` [Compound 214] gave an IC50 of 0.001 to 5 µM.
Work on `O=C(c1cc(-c2ccncc2)n(-c2cc(F)c(F)c(F)c2)n1)N1CCC2(CC1)C(=O)NCN2c1ccccc1` [Compound 140] yielded an IC50 of 5 to 25 µM.
`O=C(c1cc(-c2ccncc2)n(-c2ccc(C(F)(F)F)nc2)n1)N1CCC2(CC1)SCCS2` [Compound 128] gave an IC50 of over 25 µM.
`O=C(c1cc(-c2cccnc2)n(-c2ccc(F)c(C(F)(F)F)c2)n1)N1CCC2(CC1)C(=O)NCN2c1ccc(OC(F)F)cc1` [Compound 283] gave an IC50 of 5 to 25 µM.
Compound `O=C(c1cc(-c2ccncc2)n(-c2ccc(C(F)(F)F)nc2)n1)N1CCC(n2c(=O)[nH]c3ccccc32)CC1` [Compound 165] has an IC50 of over 25 µM.
With `O=C1OC2(CCN(C(=O)c3cc(-c4ccncc4)n(-c4ccc(C(F)(F)F)c(F)c4)n3)CC2)c2ccc(Cl)cc21` [Compound 103] the IC50 was over 25 µM.
With `O=C(c1cc(-c2ccncc2)n(-c2ccccc2)n1)N1CCC2(CC1)OCc1ccccc12` [Compound 170] the IC50 was over 25 µM.
`N#Cc1cc(C(F)(F)F)ccc1-n1nc(C(=O)N2CCC3(CC2)C(=O)NCN3c2ccc(F)cc2)cc1-c1cccnc1` [Compound 323] was tested, and the IC50 was 0.001 to 5 µM.
With `Cc1cc(OC(F)(F)F)ccc1-n1nc(C(=O)N2CCC3(CC2)C(=O)NCN3c2ccc(F)c(F)c2)cc1-c1cccnc1` [Compound 225] the IC50 was 0.001 to 5 µM.
In the case of `O=C(c1cc(-c2cccnc2)n(-c2ccc(F)c(C(F)(F)F)c2)n1)N1CCC(n2c(=O)[nH]c3cc(F)c(F)c(F)c32)CC1` [Compound 297], the IC50 is reported as 0.001 to 5 µM.
With `O=C1OC2(CCN(C(=O)c3cc(-c4ccncc4)n(-c4ccc(C(F)(F)F)nc4)n3)CC2)c2ccccc21` [Compound 123] the IC50 was over 25 µM.
With `N#Cc1ccc(-n2nc(C(=O)N3CCC4(CC3)C(=O)NCN4c3ccc(F)c(F)c3)cc2-c2cccnc2)cc1` [Compound 213] the IC50 was 0.001 to 5 µM.
Work on `Cn1c(=O)n(C2CCN(C(=O)c3cc(-c4ccncc4)n(-c4ccc(C(F)(F)F)cc4)n3)CC2)c2ccccc21` [Compound 61] yielded an IC50 of over 25 µM.
Compound `O=C(c1cc(-c2ccncc2)n(-c2ccc(C(F)(F)F)c(F)c2)n1)N1CCC2(CC1)SCCS2` [Compound 107] has an IC50 of over 25 µM.
Compound `O=C(c1cc(-c2cccnc2)n(-c2cc(F)c(C(F)(F)F)cc2F)n1)N1CCC(n2c(=O)[nH]c3ccc(F)c(F)c32)CC1` [Compound 223] has an IC50 of 0.001 to 5 µM.
`Cc1nc(C(F)(F)F)ccc1-c1cc(C(=O)N2CCC3(CC2)C(=O)NCN3c2ccc(F)cc2)nn1-c1ccc(C(F)(F)F)c(F)c1` [Compound 263] was tested, and the IC50 was over 25 µM.
`O=C1Nc2ccc(F)cc2C2(CCN(C(=O)c3cc(-c4cccnc4)n(-c4ccc(F)c(C(F)(F)F)c4)n3)CC2)O1` [Compound 282] showed an IC50 of 0.001 to 5 µM.
Work on `O=C(c1cc(-c2ccncc2)n(-c2ccc(C(F)(F)F)cc2)n1)N1CCC2(CC1)NCN(c1ccccc1)C2=O` [Compound 73] yielded an IC50 of over 25 µM.
Compound `CC1CC2(CCN1C(=O)c1cc(-c3cccnc3)n(-c3ccc(F)c(C(F)(F)F)c3)n1)OC(=O)Nc1ccc(C(F)(F)F)cc12` (stereo not drawn) [Compound 292] has an IC50 of 5 to 25 µM.
`CN1C(=O)COc2cc(NC(=O)c3cc(-c4ccncc4)n(-c4ccc(C(F)(F)F)c(F)c4)n3)ccc21` [Compound 110] showed an IC50 of over 25 µM.
For `N#Cc1ccc(-n2nc(C(=O)N3CCC(n4c(=O)[nH]c5ccc(F)c(F)c54)CC3)cc2-c2cccnc2)cc1C(F)(F)F` [Compound 284], the IC50 was 0.001 to 5 µM.
`O=C(c1cc(-c2ccncc2)n(-c2ccc(C(F)(F)F)cc2)n1)N1CCC2(CC1)C(=O)NCN2c1ccc(Cl)cc1` [Compound 56] gave an IC50 of over 25 µM.
`O=C1Nc2ccccc2C1N1CCN(C(=O)c2cc(-c3cccnc3)n(-c3ccc(C(F)(F)F)c(F)c3)n2)CC1` (stereo not drawn) [Compound 258] showed an IC50 of over 25 µM.
Work on `O=C(c1cc(-c2cccnc2)n(-c2ccc(C(F)(F)F)cc2C(F)(F)F)n1)N1CCC(n2c(=O)[nH]c3ccc(F)c(F)c32)CC1` [Compound 236] yielded an IC50 of 0.001 to 5 µM.
Compound `O=C(c1cc(-c2cccnc2)n(-c2ccc(C(F)(F)F)c(F)c2)n1)N1CCC2(CC1)C(=O)NCN2c1ccc(F)c(Cl)c1` [Compound 189] has an IC50 of 0.001 to 5 µM.
`N#Cc1ccc(-n2nc(C(=O)N3CCC(n4c(=O)[nH]c5ccc(F)c(F)c54)CC3)cc2-c2cccnc2)cc1F` [Compound 224] showed an IC50 of 0.001 to 5 µM.
`O=C(c1cc(-c2cccnc2)n(-c2ccc(C(F)(F)F)c(C(F)(F)F)c2)n1)N1CCC(n2c(=O)[nH]c3ccc(F)c(F)c32)CC1` [Compound 285] was tested, and the IC50 was 0.001 to 5 µM.
Work on `N#Cc1cccc2[nH]c(=O)n(C3CCN(C(=O)c4cc(-c5cccnc5)n(-c5ccc(C(F)(F)F)c(F)c5)n4)CC3)c12` [Compound 243] yielded an IC50 of over 25 µM.
Work on `O=C(c1cc(-c2ccncc2)n(-c2ccccc2)n1)N1CCC(N2C(=O)OC[C@H]2c2ccccc2)CC1` [Compound 173] yielded an IC50 of over 25 µM.
With `O=C(c1cc(-c2ccncc2)n(-c2ccc(F)c(F)c2)n1)N1CCC2(CC1)NCN(c1ccccc1)C2=O` [Compound 95] the IC50 was over 25 µM.
`O=C(c1cc(-c2cccnc2)n(-c2ccc(OC(F)(F)F)c(F)c2)n1)N1CCC(n2c(=O)[nH]c3ccc(F)c(F)c32)CC1` [Compound 215] showed an IC50 of 0.001 to 5 µM.
In the case of `O=C(c1cc(-c2ccncc2)n(-c2cc(F)c(F)c(F)c2)n1)N1CCC(n2c(=O)[nH]c3cc(C(F)(F)F)ccc32)CC1` [Compound 176], the IC50 is reported as 5 to 25 µM.
Compound `O=C(c1cc(-c2cccnc2)n(-c2ccc(C(F)(F)F)c(F)c2)n1)N1CCC(n2c(=O)[nH]c3ncccc32)CC1` [Compound 260] has an IC50 of 0.001 to 5 µM.
